Experimental data from patent publication US7501410B2, “Methods of inhibiting BTK and SYK protein kinases” (Roche Palo Alto LLC, priority 2006, dated 2009).

Experiments:
[1] = biological target: T1, Bruton's Tyrosine Kinase (Btk) (Homo sapiens, UniProt Q06187); assay: Determination of IC50 of Bruton's Tyrosine Kinase (Btk) inhibition, 33P filtration assay; type: biochemical; settings: His-tagged full-length Btk, 100 μM ATP
T1 construct: 5-10 nM Btk enzyme (His-tagged, full-length); His tag
Source text: Determination of IC50 of Bruton's Tyrosine Kinase (Btk) Inhibition
The assay is a capture of radioactive ^33P phosphorylated product through filtration. The interactions of Btk, biotinylated SH2 peptide substrate (Src homology), and ATP lead to phosphorylation of the peptide substrate. Biotinylated product is bound streptavidin sepharose beads. All bound, radiolabeled products are detected by scintillation counter.
Plates assayed are 96-well polypropylene (Greiner) and 96-well 1.2 μm hydrophilic PVDF filter plates (Millipore). Concentrations reported here are final assay concentrations: 10-100 μM compounds in DMSO (Burdick and Jackson), 5-10 nM Btk enzyme (His-tagged, full-length), 30 μM peptide substrate (Biotin-Aca-[…]-NH2), 100 μM ATP (Sigma), 8 mM imidazole (Sigma, pH 7.2), 8 mM glycerol-2-phosphate (Sigma), 200 μM EGTA (Roche Diagnostics), 1 mM MnCl2 (Sigma), 20 mM MgCl2 (Sigma), 0.1 mg/ml BSA (Sigma), 2 mM DTT (Sigma), 1 μCi ^33P ATP (Amersham), 20% streptavidin sepharose beads (Amersham), 50 mM EDTA (Gibco), 2 M NaCl (Gibco), 2 M NaCl w/1% phosphoric acid (Gibco), microscint-20 (Perkin Elmer).
IC50 determinations are calculated from 10 data points per compound utilizing data produced from a standard 96-well plate assay template. One control compound and seven unknown inhibitors were tested on each plate and each plate was run twice. Typically, compounds were diluted in half-log starting at 100 μM and ending at 3 nM. The control compound was staurosporine. Background was counted in the absence of peptide substrate. Total activity was determined in the presence of peptide substrate. The following protocol was used to determine BTK inhibition.
1) Sample preparation: The test compounds were diluted at half-log increments in assay buffer (imidazole, glycerol-2-phosphate, EGTA, MnCl2, MgCl2, BSA).
2) Bead preparation • a.) rinse beads by centrifuging at 500 g • b.) reconstitute the beads with PBS and EDTA to produce a 20% bead slurry
3) Pre-incubate reaction mix without substrate (assay buffer, DTT, ATP, ^33P ATP) and mix with substrate (assay buffer, DTT, ATP, ^33P ATP, peptide substrate) 30° C. for 15 min.
4) To start assay, pre-incubate 10 μL BTK in enzyme buffer (imidazole, glycerol-2-phosphate, BSA) and 10 μL of test compounds for 10 min at RT.
5) Add 30 μL reaction mixture without or with substrate to BTK and compounds.
6) Incubate 50 μL total assay mix for 30 min at 30° C.
7) Transfer 40 μL of assay to 150 μL bead slurry in filter plate to stop reaction.
8) Wash filter plate after 30 min, with following steps • a. 3 ×250 μL NaCl • b. 3×250 μL NaCl containing 1% phosphoric acid • c. 1×250 μL H2O
9) Dry plate for 1 h at 65° C. or overnight at RT
10) Add 50 μL microscint-20 and count ^33P cpm on scintillation counter.
Calculate percent activity from raw data in cpm percent activity=(sample−bkg)/(total activity−bkg)×100

Ramos cells = assay: Inhibition of B-cell activation, B cell FLIPR assay in Ramos cells; type: cell-based; settings: Homo sapiens, anti-IgM stimulated intracellular calcium increase
Source text: Inhibition of B-cell Activation—B Cell FLIPR Assay in Ramos Cells
The B cell FLIPR assay is a cell based functional method of determining the effect of potential inhibitors of the intracellular calcium increase from stimulation by an anti-IgM antibody. Ramos cells (human Burkitt's lymphoma cell line. ATCC-No. CRL-1596) were cultivated in Growth Media (described below). One day prior to assay, Ramos cells were resuspended in fresh growth media (same as above) and set at a concentration of 0.5×10^6/mL in tissue culture flasks. On day of assay, cells were counted and set at a concentration of 1×10^6/mL in growth media supplemented with 1 μM FLUO-3 AM(TefLabs Cat-No. 0116, prepared in anhydrous DMSO and 10% Pluronic acid) in a tissue culture flask, and incubated at 37° C. (4% CO2) for 1 h. To remove extracellular dye, cells were collected by centrifugation (5 min, 1000 rpm), resuspended in FLIPR buffer (described below) at 1×10^6 cells/mL and then dispensed into 96-well poly-D-lysine coated black/clear plates (BD Cat-No. 356692) at 1×10^5 cells per well. Test compounds at seven concentrations ranging from 100 μM to 0.03 μM were added, and allowed to incubate with cells for 30 min at RT. Ramos cell Ca^2+ signaling was stimulated by the addition of 10 μg/mL anti-IgM (Southern Biotech, Cat-No. 2020-01) and measured on a FLIPR (Molecular Devices, captures images of 96 well plates using a CCD camera with an argon laser at 480 nm excitation).
Growth Medium: RPMI 1640 medium with L-glutamine (Invitrogen, Cat-No. 61870-010), 10% Fetal Bovine Serum (FBS, Summit Biotechnology Cat-No. FP-100-05); 1 mM Sodium Pyruvate (Invitrogen Cat. No. 11360-070).
FLIPR buffer: HBSS (Invitrogen, Cat-No. 141175-079),2 mM CaCl2 (Sigma Cat-No. C-4901), HEPES (Invitrogen, Cat-No. 15630-080), 2.5 mM Probenecid (Sigma, Cat-No. P-8761), 0.1% BSA (Sigma, Cat-No. A-7906), 11 mM Glucose (Sigma, Cat-No. G-7528).
In order to achieve the highest final assay concentration of 100 μM, 24 μL of 10 mM compound stock solution (made in DMSO) is added directly to 576 μL of FLIPR buffer. The test compounds are diluted in FLIPR Buffer (using Biomek 2000 robotic pipettor) resulting in the following dilution scheme: vehicle, 1.00×10^−4 M, 1.00×10^−5, 3.16×10^−6, 1.00×10^−6, 3.16×10^−7, 1.00×10^−7, 3.16×10^−8.
Intracellular increases in calcium were reported using a max-min statistic (subtracting the resting baseline from the peak caused by addition of the stimulatory antibody using a Molecular Devices FLIPR control and statistic exporting software. The IC50 was determined using a non-linear curve fit (GraphPad Prism software). Representative results are in Table 1.

T1 sequence (Q06187 whole entry): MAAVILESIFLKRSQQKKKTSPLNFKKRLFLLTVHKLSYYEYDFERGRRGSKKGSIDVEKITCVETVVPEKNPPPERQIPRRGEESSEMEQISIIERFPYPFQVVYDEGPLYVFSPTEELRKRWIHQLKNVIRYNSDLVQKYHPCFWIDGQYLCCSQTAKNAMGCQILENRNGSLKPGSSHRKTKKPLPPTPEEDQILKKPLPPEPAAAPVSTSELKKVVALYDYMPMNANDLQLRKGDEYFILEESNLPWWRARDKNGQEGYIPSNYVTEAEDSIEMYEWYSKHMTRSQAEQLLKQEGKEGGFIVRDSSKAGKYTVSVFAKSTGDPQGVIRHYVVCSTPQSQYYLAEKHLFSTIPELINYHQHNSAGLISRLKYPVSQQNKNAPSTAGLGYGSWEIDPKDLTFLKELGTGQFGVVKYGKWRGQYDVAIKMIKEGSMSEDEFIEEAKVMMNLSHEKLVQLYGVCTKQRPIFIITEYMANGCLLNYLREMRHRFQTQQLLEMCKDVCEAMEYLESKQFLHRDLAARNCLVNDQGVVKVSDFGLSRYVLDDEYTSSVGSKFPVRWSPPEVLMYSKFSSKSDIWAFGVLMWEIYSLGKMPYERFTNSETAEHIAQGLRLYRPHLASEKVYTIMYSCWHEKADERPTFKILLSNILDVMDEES

IC50 [1]: 0.468 µM | IC50 (Ramos cells): 1.13 µM
Compound: Cc1cc(Nc2nn(C(C)C)c(=O)c3cc(N(C)C)ccc23)n[nH]1 [Example F-6, 2-Isopropyl-4-(5-methyl-1H-pyrazol-3-ylamino)-7-dimethylamino-2H-phthalazin-1-one]
